From patent US7449446B2, “Combination product comprising melagatran and dexamethasone” (AstraZeneca AB, priority 2001, dated 2008)

How the values were obtained:
Assay type in all cases: in vivo, Sprague-Dawley rats
[1] = tested on: thrombin/antithrombin III complex (TAT); experiment: Thrombin/antithrombin III complex (TAT) in plasma after endotoxin
Description: (§1) The body temperature was maintained at. 38° C. throughout the experiment by external heating.
[…]. […] Sham operated animals received saline instead of endotoxin.

rats given endotoxin = experiment: 125I-fibrinogen in the blood after endotoxin (experimental endotoxaemia); conditions: high dose heparin (group VIII); melagatran groups IV-VI; melagatran with dexamethasone groups XVII-XX
Description: as §1
(§2) Sham operated animals received saline instead of endotoxin.
Adjustment for multiplicity was done using Scheffe. […] Corrections for multiple comparisons were made according to Bonferroni.

[2] = Plasma concentration of melagatran (LC-MS)
Description: as §2

## C[C@@H]1C[C@H]2[C@@H]3CCC4=CC(=O)C=C[C@]4(C)[C@@]3(F)[C@@H](O)C[C@]2(C)[C@@]1(O)C(=O)CO [dexamethasone, Dexamethasone]
[1]; dexamethasone groups (discussion)
  TAT (thrombin generation): below 8 μg/l

## NC[C@H]1CC[C@H](C(=O)O)CC1 [tranexamic acid]
[1]; measured in some animals, group III, groups XV-XX
  TAT: 55.5 ± 6.6 µg/L

## N=C(N)c1ccc(CNC(=O)[C@@H]2CCN2C(=O)[C@H](NCC(=O)O)C2CCCCC2)cc1 [melagatran, HOOC—CH2—(R)Cgl-Aze-Pab-H]
Rats given endotoxin
  fibrinogen consumption: completely prevented
[2]; group IV, Mela low 0.13 μmol/kg bolus + 0.32 μmol/kg/h iv
  mean plasma concentration of melagatran during the 5 h experiment: 0.78 ± 0.08 µmol/L
[2]; group IX, Hep low + Mela low
  plasma concentration of melagatran combined with heparin: 0.72 ± 0.09 µmol/L
[2]; group V, Mela med 0.4 μmol/kg bolus + 1.0 μmol/kg/h iv
  mean plasma concentration of melagatran during the 5 h experiment: 2.83+0.45 μmol/l
[2]; group VI, Mela high 1.3 μmol/kg bolus + 3.2 μmol/kg/h iv
  mean plasma concentration of melagatran during the 5 h experiment: 6.88 ± 0.42 µmol/L
[2]; group X, Hep low + Mela med
  plasma concentration of melagatran combined with heparin: 1.97 ± 0.16 µmol/L
[2]; high dose group, first value (group XVIII, Dexa low 1 mg/kg + melagatran 0.4 μmol/kg + 1.0 μmol/kg/h)
  plasma concentration of melagatran in combination with dexamethasone: 1.49 ± 0.13 µmol/L
[2]; high dose group, second value (group XX, Dexa high 10 mg/kg + melagatran 0.4 μmol/kg + 1.0 μmol/kg/h)
  plasma concentration of melagatran in combination with dexamethasone: 1.28 ± 0.1 µmol/L
[2]; low dose group, first value (group XVII, Dexa low 1 mg/kg + melagatran 0.13 μmol/kg + 0.32 μmol/kg/h)
  plasma concentration of melagatran in combination with dexamethasone: 0.48 ± 0.01 µmol/L
[2]; low dose group, second value (group XIX, Dexa high 10 mg/kg + melagatran 0.13 μmol/kg + 0.32 μmol/kg/h)
  plasma concentration of melagatran in combination with dexamethasone: 0.46 ± 0.02 µmol/L
